Data as given in patent US10968214B2, “KRas G12C inhibitors” (Eli Lilly and Company, priority 2018, dated 2021).
pIC50: −log10 of the molar value. Like-named read-outs stand apart in the source and are kept apart here.

How the values were obtained:
KRas G12C = KRas G12C (Homo sapiens, UniProt P01116, G12C); assay: KRas G12C Probe Occupancy TR-FRET Assay; format: binding; settings: 60 min incubation of inhibitor with KRas G12C; read-out: TR-FRET 60 min
Protocol: Inhibitors are tested in dose response format from 10 mM stocks in 100% DMSO. The Labycyte Echo® 555 is used to dilute and transfer 100 nL per well containing a 10 point, 2.8-fold serial dilution to an assay plate. […] The signal ratio (em at 665/em at 615) is converted to percent inhibition using the following equation: % Inhibition=100−[(Test Compound Signal−Median Minimum Signal)/(Median Maximum Signal−Median Minimum Signal)×100].

[1] = biological target: T1, constitutive RAS GTPAse activity in H358 cells (Homo sapiens, UniProt P01116, G12C); assay: H358 Cellular Active RAS GTPase ELISA; format: cell-based; settings: 2 hr, read-out: RAS-GTP
T1 construct: host or cells: H358 human lung cancer cells
T1 sequence (P01116 1-188 isoform P01116-2 G12C): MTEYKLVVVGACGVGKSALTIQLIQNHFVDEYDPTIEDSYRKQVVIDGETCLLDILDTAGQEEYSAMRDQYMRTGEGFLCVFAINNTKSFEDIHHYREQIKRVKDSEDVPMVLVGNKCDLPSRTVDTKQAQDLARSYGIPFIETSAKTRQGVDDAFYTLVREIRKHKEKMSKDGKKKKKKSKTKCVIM
Excerpt: This assay is used to measure the ability of test compounds to inhibit constitutive RAS GTPAse activity in human lung cancer cells H358 (ATCC CRL-5807). The RAS GTPase ELISA kit (Active Motif Cat #52097) contains a 96-well plate pre-coated with glutathione in order to capture a kit-supplied GST-Raf-RBD protein. Activated RAS (GTP-bound) in cell extracts specifically bind to the Raf-RBD. Bound RAS is detected with a primary antibody that recognizes human KRas. A secondary antibody conjugated with HRP recognizes the primary antibody and a development solution provides a chemiluminescent readout.
H358 cells are plated at 80,000 cells/well in 90 μL serum free media (RPMI 1640, GIBCO) and incubated overnight at 37° C./5% CO2. The next morning, 10 μL of serially-diluted (3-fold) test compounds (500 μM top concentration) and 10 μL of controls (Maximum signal wells: 5% DMSO and Minimum signal wells: 500 μM LSN3429410 as an inhibitor) are added to the cell plate and incubated for 2 hr at 37° C./5% CO2. Complete Lysis/Binding Buffer is prepared containing Protease Inhibitor cocktail and GST-Raf-RBD and stored on ice. One hour before cell plate incubation is completed, 50 μL of GST-Raf-RBD is diluted in lysis/binding buffer, and buffer is added to the ELISA assay plate and which is incubated for 1 hour at 4° C. with gently rocking. After 2 hr, the cells are washed with 100 μL ice-cold PBS and lysed with 100 μL lysis/binding buffer. The cell plate is shaken for 10 min at RT. The cell plate is then centrifuged at 1500 rpm for 10 min at RT. During this time, 1× Wash Buffer is prepared at RT and then is used to wash (3×100 μL) the GST-Raf-RBD coated assay plate. After washing, 50 μL of cell lysate is added to the GST-Raf-RBD coated assay plate and incubated for 1 hour at RT with gentle shaking. During this incubation period, 1× Antibody Binding Buffer is prepared and brought to RT. The assay plate is washed 3×100 μL with 1× Wash Buffer and then 50 μL of Primary Antibody (diluted 1:500 in 1× Antibody Binding buffer) is added. The plate is incubated for 1 hour at RT. The assay plate is washed 3×100 μl with 1× Wash Buffer and then 50 μL of Secondary Antibody (diluted 1:5000 in 1× Antibody Binding buffer) is added and incubated for 1 hour at RT. The assay plate is washed 4×100 μL with 1× Wash buffer and then 50 μL of chemiluminescent working solution is added at RT. The assay plate is then read on an EnVision™ Plate Reader (Perkin Elmer) using a luminescence program.
The signal is converted to percent inhibition using the following equation: % Inhibition=100−[(Test Compound Signal−Median Minimum Signal)/(Median Maximum Signal−Median Minimum Signal)×100]. The Maximum signal is a control well without inhibitor.

[2] = test system: phosphorylation of p-ERK1/2 in H358 cells; assay: H358 Cellular Phospho-ERK AlphaLISA; format: cell-based, Human; settings: read-out: pERK
Protocol: This assay is used to measure the ability of test compounds to inhibit the phosphorylation of p-ERK1/2, a downstream effector of KRas in Human lung cancer cells H358 (ATCC CRL-5807). Briefly, the AlphaLISA® SureFire® Ultra™ p-ERK 1/2 (Thr202/Tyr204) assay is a sandwich immunoassay for quantitative detection of phospho-ERK 1/2 (phosphorylated on Thr202/Tyr204 in ERK1, or Thr185/Tyr187 in ERK2) in cellular lysates using Alpha Technology (Perkin Elmer Cat #ALSU-PERK-A50K).
H358 cells are plated at 40K cells per well in 100 μL media (RPMI 1640, GIBCO Cat #22400-071) containing 10% FBS (GIBCO Cat #: 10082-147) in a 96 well plate (Costar #3596) and are incubated overnight in humid trays at 37° C., 5% CO2. The next morning, 10 μL of serially-diluted (3-fold) test compounds (50 μM top concentration) and 10 uL of controls (Maximum signal wells: 5% DMSO and Minimum signal wells: 2 μM of N-(3-{3-cyclopropyl-5-[(2-fluoro-4-iodophenyl)amino]-6,8-dimethyl-2,4,7-trioxo-3,4,6,7-tetrahydropyrido[4,3-D]pyrimidin-1(2H)-yl}phenyl)acetamide (trametinib, as a positive control) are added to the cell plate and incubated for 2 hr in humid trays at 37° C./5% CO2. Lysis Buffer is prepared at RT containing a protease and phosphatase inhibitor cocktail. Culture medium is removed by inverting and shaking the cell plate in the sink and then blotting onto a paper towel. Lysis buffer is added to the cell plate (50 μL per well) and the plate is incubated at RT for 10 min on a shaker. For p-ERK detection, acceptor beads are diluted into a suspension mixture with buffer. Using a Starlett liquid handler, 5 μL of acceptor beads and 2 μL of cell lysate are transferred as a single-step in-tip dilution to a 384 well assay plate. The assay plate is sealed with foil and is incubated at RT for 2 hrs. Donor beads are diluted into a suspension mixture with buffer. Using the Starlet, 5 μL of donor beads are added to the assay plate that is then sealed, wrapped with foil. The plate is incubated at RT for 2 hrs in the dark. The assay plate is then read on an EnVision™ Plate Reader (Perkin Elmer) using a luminescence program.
The signal is converted to percent inhibition using the following equation: % Inhibition=100−[(Test Compound Signal−Median Minimum Signal)/(Median Maximum Signal−Median Min Signal)×100]. The Maximum signal is a control well without inhibitor.

EL3187 (PDX) = assay: Anti-tumor growth activity, EL3187 lung PDX; format: in vivo; settings: EL3187 Lung PDX; Afatinib 25 mg/kg QDx28

Sequence of KRas G12C (P01116 1-188 isoform P01116-2 G12C): as above

| Compound | pIC50 (KRas G12C) | pIC50 [1] | pIC50 ([2]; 2 hr) | pIC50 ([2]; Homo sapiens, NCI-H358, 2 h) | In Vivo Anti-Tumor Activities (EL3187 (PDX)) |
| --- | --- | --- | --- | --- | --- |
| C=CC(=O)N1CCN(c2ncnc3c(F)c(-c4c(F)cc(F)c5sc(N)nc45)c(Cl)cc23)CC1 (single isomer, unassigned) [Example 6a, 1-{4-[7-(2-Amino-5,7-difluoro-1,3-benzothiazol-4-yl)-6-chloro-8-fluoroquinazolin-4-yl]piperazin-1-yl}prop-2-en-1-one] | > 7.72 | 7.93 | 8.40 | – | – |
| CN(C)C/C=C/C(=O)Nc1cc2c(Nc3ccc(F)c(Cl)c3)ncnc2cc1O[C@H]1CCOC1 [Afatinib, afatinib, reference compound] | – | – | – | – | 17.1 |
| C=CC(=O)N1CCN(c2ncnc3cc(-c4ccc(F)c5sc(N)nc45)c(Cl)cc23)CC1 [Example 4, 1-{4-[7-(2-Amino-7-fluoro-1,3-benzothiazol-4-yl)-6-chloroquinazolin-4-yl]piperazin-1-yl}prop-2-en-1-one] | 7.60 | 6.63 | – | 7.57 | – |
| C=CC(=O)N1CCN(c2ncnc3c(F)c(-c4cccc5sc(N)nc45)c(Cl)cc23)CC1 [Example 5, 1-{4-[7-(2-Amino-1,3-benzothiazol-4-yl)-6-chloro-8-fluoroquinazolin-4-yl]piperazin-1-yl}prop-2-en-1-one] | 7.56 | 6.98 | – | 8.01 | – |
| C=CC(=O)N1CCN(c2ncnc3c(F)c(-c4cc(O)cc5ccccc45)c(Cl)cc23)CC1 [reference compound] | 7.34 | 6.41 | – | 6.69 | – |
| C=CC(=O)N1CCN(c2ncnc3cc(-c4ccc5oc(N)nc5c4)c(Cl)cc23)CC1 [reference compound] | 4.09 | < 4.30 | – | < 5.30 | – |

Continued, in another order:

| pIC50 (KRas G12C) | pIC50 [1] | pIC50 ([2]; 2 hr) | pIC50 ([2]; Homo sapiens, NCI-H358, 2 h) | Compound | In Vivo Anti-Tumor Activities (EL3187 (PDX)) |
| --- | --- | --- | --- | --- | --- |
| 6.35 | 6.13 | 6.59 | – | C=CC(=O)N1CCN(c2ncnc3c(F)c(-c4c(F)cc(F)c5sc(N)nc45)c(Cl)cc23)CC1 (single isomer, unassigned) [Example 6b, 1-{4-[7-(2-Amino-5,7-difluoro-1,3-benzothiazol-4-yl)-6-chloro-8-fluoroquinazolin-4-yl]piperazin-1-yl}prop-2-en-1-one] | – |
| 7.32 | 6.83 | – | 7.71 | C=CC(=O)N1CCN(c2ncnc3c(Cl)c(-c4ccc(F)c5sc(N)nc45)c(Cl)cc23)CC1 [Example 2, 1-{4-[7-(2-Amino-7-fluoro-1,3-benzothiazol-4-yl)-6,8-dichloroquinazolin-4-yl]piperazin-1-yl}prop-2-en-1-one] | – |
| 7.68 | 6.78 | – | 7.82 | C=CC(=O)N1CCN(c2ncnc3c(F)c(-c4cc(F)c(F)c5sc(N)nc45)c(Cl)cc23)CC1 [Example 3, 1-{4-[7-(2-Amino-6,7-difluoro-1,3-benzothiazol-4-yl)-6-chloro-8-fluoroquinazolin-4-yl]piperazin-1-yl}prop-2-en-1-one] | – |
| – | 5.42 | – | 5.80 | C=CC(=O)N1CCN(c2ncnc3c(F)c(-c4c(O)cccc4F)c(Cl)cc23)CC1 [reference compound] | – |
